PMC2883171 (Organic & biomolecular chemistry, 2008)

T1: human reticulocyte 15-lipoxygenase-1 (15-hLO-1) (Homo sapiens, UniProt P16050)
T1 sequence (P16050 1-662): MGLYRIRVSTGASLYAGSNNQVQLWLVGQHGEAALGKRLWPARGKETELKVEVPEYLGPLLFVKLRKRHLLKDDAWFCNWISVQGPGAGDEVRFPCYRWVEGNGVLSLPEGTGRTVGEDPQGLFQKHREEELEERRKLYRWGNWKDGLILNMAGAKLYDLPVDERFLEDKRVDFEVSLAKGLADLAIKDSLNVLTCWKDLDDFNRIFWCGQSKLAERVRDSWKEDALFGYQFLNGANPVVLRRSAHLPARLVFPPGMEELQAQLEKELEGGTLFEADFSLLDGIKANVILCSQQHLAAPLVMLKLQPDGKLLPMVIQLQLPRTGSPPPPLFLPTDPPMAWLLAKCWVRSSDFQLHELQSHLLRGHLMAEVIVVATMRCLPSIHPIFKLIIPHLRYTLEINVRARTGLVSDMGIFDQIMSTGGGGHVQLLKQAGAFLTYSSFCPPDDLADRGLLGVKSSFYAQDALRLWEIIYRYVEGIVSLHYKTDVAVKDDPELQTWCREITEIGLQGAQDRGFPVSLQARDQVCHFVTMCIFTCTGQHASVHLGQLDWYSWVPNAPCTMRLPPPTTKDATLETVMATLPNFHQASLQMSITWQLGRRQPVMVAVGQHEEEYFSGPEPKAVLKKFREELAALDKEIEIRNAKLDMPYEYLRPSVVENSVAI

T2: soybean lipoxygenase-1 (sLO-1) (Glycine max, UniProt P08170)
T2 sequence (P08170 1-839): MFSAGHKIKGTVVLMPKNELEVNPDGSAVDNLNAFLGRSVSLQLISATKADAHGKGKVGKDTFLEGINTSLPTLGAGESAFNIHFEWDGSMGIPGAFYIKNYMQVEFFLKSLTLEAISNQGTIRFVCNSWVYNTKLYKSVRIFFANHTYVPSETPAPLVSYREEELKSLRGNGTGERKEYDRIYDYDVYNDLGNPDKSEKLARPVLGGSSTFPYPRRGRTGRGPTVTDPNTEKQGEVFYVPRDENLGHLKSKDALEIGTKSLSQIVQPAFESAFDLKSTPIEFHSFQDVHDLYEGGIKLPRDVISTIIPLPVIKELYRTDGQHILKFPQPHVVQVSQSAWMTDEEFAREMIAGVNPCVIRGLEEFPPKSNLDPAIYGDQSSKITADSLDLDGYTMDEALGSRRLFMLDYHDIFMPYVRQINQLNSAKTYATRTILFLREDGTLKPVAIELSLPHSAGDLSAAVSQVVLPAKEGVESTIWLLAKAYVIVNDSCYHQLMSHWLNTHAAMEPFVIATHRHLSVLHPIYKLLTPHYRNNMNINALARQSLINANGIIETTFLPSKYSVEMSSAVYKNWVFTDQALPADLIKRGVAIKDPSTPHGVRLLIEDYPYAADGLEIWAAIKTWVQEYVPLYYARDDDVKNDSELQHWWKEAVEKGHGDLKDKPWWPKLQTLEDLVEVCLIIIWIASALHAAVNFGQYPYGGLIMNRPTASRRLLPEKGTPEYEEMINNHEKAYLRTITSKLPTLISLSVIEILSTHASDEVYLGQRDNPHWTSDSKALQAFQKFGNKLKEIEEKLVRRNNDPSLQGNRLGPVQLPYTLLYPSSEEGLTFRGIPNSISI


How the values were obtained:
[1] = molecular target: T1, human reticulocyte 15-lipoxygenase-1 (15-hLO-1); experiment: Kinetic inhibition assay of 15-hLO-1; assay type: biochemical; conditions: read-out: Km with 15-hLO-1; substrate itself, 13-HPODE activator
[2] = molecular target: T2, soybean lipoxygenase-1 (sLO-1); experiment: Kinetic inhibition assay of sLO-1; assay type: biochemical; conditions: read-out: Km for linoleic acid with sLO-1; pH 10.0
[3] = substrate: CCCCC/C=C\C/C=C\C/C=C\C/C=C\CCCC(=O)O; experiment: Kinetic inhibition assay of sLO-1; assay type: biochemical, soybean

Km [1] [µM] | Km [2] [µM] | Molecule | Km ([3]; other: pH 7.5, 13-HPODE activator, pH 7.5) [µM] | Km ([3]; other: pH 10.0, 13-HPODE activator, pH 10.0) [µM]
6.2 ± 0.9 | 28 ± 5 | CCCCC/C=C\C/C=C\CCCCCCCC(=O)O [LA, linoleic acid, reference compound] |  | 
 |  | soybean lipoxygenase-1 (sLO-1) (Glycine max) (protein) MFSAGHKIKGTVVLMPKNELEVNPDGSAVDNLNAFLGRSVSLQLISATKADAHGKGKVGKDTFLEGINTSLPTLGAGESAFNIHFEWDGSMGIPGAFYIKNYMQVEFFLKSLTLEAISNQGTIRFVCNSWVYNTKLYKSVRIFFANHTYVPSETPAPLVSYREEELKSLRGNGTGERKEYDRIYDYDVYNDLGNPDKSEKLARPVLGGSSTFPYPRRGRTGRGPTVTDPNTEKQGEVFYVPRDENLGHLKSKDALEIGTKSLSQIVQPAFESAFDLKSTPIEFHSFQDVHDLYEGGIKLPRDVISTIIPLPVIKELYRTDGQHILKFPQPHVVQVSQSAWMTDEEFAREMIAGVNPCVIRGLEEFPPKSNLDPAIYGDQSSKITADSLDLDGYTMDEALGSRRLFMLDYHDIFMPYVRQINQLNSAKTYATRTILFLREDGTLKPVAIELSLPHSAGDLSAAVSQVVLPAKEGVESTIWLLAKAYVIVNDSCYHQLMSHWLNTHAAMEPFVIATHRHLSVLHPIYKLLTPHYRNNMNINALARQSLINANGIIETTFLPSKYSVEMSSAVYKNWVFTDQALPADLIKRGVAIKDPSTPHGVRLLIEDYPYAADGLEIWAAIKTWVQEYVPLYYARDDDVKNDSELQHWWKEAVEKGHGDLKDKPWWPKLQTLEDLVEVCLIIIWIASALHAAVNFGQYPYGGLIMNRPTASRRLLPEKGTPEYEEMINNHEKAYLRTITSKLPTLISLSVIEILSTHASDEVYLGQRDNPHWTSDSKALQAFQKFGNKLKEIEEKLVRRNNDPSLQGNRLGPVQLPYTLLYPSSEEGLTFRGIPNSISI | 31.7 ± 3.5 | 15.1 ± 1.5
